# Experimental data: US10870832B2, “Use of small molecules to enhance MAFA expression in pancreatic endocrine cells” (Janssen Biotech, Inc., priority 2014, dated 2020)
# Columns and labels:
# Test in all cases: Kinase profiling of R428
# ROCK-1(h) = ROCK-1(h) (Homo sapiens, UniProt Q13464); type: biochemical; details: 100 μM ATP, lower number = more robust inhibition
# Protocol: (§1) The efficiency of the AXL inhibitor R428 for targeting different kinases was assessed by Kinase Profiling Services using 100 μM ATP concentration (EMD Millipore). R428 was tested at 1 and 10 μM. Table IV lists the kinases profiled along with the efficiency in targeting the kinases with a lower number indicating a more robust inhibition of a particular kinase.
# IGF-1R(h) = IGF-1R(h) (Homo sapiens, UniProt P08069); type: biochemical; details: 100 μM ATP, lower number = more robust inhibition
# Protocol: as §1
# NEK2(h) = NEK2(h) (Homo sapiens, UniProt P51955); type: biochemical; details: 100 μM ATP, lower number = more robust inhibition
# Protocol: as §1
# TGEBR1(h) = TGEBR1(h) (Homo sapiens, UniProt P36897); type: biochemical; details: 100 μM ATP, lower number = more robust inhibition
# Sequence of TGEBR1(h) (P36897 34-503): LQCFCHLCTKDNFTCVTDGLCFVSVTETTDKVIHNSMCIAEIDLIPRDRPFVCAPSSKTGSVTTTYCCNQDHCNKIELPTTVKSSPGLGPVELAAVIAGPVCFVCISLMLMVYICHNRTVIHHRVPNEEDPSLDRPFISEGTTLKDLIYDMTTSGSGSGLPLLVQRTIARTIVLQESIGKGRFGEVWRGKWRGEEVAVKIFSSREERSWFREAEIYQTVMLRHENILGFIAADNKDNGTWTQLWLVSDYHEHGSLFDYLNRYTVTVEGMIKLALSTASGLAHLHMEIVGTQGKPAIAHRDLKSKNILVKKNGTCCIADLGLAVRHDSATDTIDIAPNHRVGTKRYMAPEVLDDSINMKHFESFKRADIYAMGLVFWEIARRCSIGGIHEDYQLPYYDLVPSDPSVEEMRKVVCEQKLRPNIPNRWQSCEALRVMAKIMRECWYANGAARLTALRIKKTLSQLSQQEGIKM
# Protocol: as §1
# Ret(h) = Ret(h) (Homo sapiens, UniProt P07949); type: biochemical; details: for efficiency in targeting Ret(h): 100 μM ATP, lower number = more robust inhibition
# Sequence of Ret(h) (P07949 29-1114): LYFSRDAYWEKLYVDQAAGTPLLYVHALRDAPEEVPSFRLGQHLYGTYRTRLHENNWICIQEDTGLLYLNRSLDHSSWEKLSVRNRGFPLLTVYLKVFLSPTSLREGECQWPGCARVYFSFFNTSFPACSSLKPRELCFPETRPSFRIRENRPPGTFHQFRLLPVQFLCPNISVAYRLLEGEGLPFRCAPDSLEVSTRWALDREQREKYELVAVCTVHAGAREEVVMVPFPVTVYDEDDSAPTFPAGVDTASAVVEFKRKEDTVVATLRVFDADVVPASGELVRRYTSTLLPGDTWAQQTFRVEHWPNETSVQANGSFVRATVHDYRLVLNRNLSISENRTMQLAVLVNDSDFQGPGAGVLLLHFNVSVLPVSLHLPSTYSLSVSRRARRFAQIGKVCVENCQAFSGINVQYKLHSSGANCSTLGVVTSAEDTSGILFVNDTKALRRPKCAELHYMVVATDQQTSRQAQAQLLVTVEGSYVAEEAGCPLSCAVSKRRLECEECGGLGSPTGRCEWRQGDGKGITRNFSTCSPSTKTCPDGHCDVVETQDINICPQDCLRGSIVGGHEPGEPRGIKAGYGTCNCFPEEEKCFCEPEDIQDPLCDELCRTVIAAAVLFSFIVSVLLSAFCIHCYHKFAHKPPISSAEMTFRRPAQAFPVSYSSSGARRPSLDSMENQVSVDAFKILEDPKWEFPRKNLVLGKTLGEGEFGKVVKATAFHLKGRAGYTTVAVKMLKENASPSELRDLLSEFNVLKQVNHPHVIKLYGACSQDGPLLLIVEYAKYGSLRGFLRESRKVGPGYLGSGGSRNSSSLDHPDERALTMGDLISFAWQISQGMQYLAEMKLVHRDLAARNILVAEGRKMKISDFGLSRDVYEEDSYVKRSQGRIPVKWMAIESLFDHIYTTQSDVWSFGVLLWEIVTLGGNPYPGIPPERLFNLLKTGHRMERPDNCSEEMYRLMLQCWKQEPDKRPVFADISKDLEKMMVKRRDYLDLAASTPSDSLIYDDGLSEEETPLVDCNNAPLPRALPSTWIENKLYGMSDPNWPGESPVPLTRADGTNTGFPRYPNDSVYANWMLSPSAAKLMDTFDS
# Protocol: as §1
# IKKβ(h) = IKKβ(h) (Homo sapiens, UniProt O14920); type: biochemical; details: 100 μM ATP, lower number = more robust inhibition
# Sequence of IKKβ(h) (O14920 whole entry): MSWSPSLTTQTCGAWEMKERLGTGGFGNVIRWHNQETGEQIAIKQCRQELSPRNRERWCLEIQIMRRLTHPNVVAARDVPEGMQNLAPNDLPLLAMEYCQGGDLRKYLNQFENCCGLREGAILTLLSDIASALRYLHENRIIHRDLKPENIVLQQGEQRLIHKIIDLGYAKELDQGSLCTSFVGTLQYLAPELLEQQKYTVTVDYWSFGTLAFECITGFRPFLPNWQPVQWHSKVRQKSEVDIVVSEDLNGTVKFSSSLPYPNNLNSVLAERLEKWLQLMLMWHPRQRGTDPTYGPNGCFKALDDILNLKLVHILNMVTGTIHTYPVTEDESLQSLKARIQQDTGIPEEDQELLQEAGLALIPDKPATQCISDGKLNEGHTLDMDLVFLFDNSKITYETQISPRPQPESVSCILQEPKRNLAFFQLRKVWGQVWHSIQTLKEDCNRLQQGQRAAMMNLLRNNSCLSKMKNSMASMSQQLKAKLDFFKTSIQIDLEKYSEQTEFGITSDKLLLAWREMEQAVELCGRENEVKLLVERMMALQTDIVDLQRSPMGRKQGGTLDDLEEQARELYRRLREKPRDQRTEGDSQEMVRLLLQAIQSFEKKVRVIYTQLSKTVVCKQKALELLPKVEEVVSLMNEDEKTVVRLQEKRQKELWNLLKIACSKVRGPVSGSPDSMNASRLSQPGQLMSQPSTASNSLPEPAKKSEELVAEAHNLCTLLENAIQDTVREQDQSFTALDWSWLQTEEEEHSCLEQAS
# Protocol: as §1
# FGFR1(h) = FGFR1(h) (Homo sapiens, UniProt P11362); type: biochemical; details: for efficiency in targeting FGFR1(h): 100 μM ATP, lower number = more robust inhibition
# Sequence of FGFR1(h) (P11362 22-822): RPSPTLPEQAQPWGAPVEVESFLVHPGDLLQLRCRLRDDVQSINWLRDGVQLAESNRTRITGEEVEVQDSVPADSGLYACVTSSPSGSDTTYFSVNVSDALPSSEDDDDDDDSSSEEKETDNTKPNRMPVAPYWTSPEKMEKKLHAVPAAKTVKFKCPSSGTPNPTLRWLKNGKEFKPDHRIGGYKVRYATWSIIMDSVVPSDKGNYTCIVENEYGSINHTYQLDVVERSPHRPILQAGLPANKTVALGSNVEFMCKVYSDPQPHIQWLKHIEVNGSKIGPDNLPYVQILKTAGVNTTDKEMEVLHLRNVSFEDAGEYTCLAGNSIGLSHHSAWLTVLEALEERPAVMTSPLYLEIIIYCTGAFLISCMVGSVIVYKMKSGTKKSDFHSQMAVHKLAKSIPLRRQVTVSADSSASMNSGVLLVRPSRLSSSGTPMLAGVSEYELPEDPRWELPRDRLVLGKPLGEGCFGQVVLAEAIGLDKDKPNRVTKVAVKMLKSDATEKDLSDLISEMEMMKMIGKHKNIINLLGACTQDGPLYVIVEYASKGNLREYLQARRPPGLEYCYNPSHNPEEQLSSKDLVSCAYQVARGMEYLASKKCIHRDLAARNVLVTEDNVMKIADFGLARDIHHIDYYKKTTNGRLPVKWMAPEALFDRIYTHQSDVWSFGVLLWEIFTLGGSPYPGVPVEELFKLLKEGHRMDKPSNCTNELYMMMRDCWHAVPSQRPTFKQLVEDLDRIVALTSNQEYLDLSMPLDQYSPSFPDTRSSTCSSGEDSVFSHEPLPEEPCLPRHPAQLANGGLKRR
# Protocol: as §1
# JAK3(h) = JAK3(h) (Homo sapiens, UniProt P52333); type: biochemical; details: 100 μM ATP, lower number = more robust inhibition
# Protocol: as §1
# Aurora-A(h) = biological target: T1, Aurora-A(h) (Homo sapiens, UniProt O14965); type: biochemical; details: for efficiency in targeting Aurora-A(h): 100 μM ATP, lower number = more robust inhibition
# T1 sequence (O14965 1-403): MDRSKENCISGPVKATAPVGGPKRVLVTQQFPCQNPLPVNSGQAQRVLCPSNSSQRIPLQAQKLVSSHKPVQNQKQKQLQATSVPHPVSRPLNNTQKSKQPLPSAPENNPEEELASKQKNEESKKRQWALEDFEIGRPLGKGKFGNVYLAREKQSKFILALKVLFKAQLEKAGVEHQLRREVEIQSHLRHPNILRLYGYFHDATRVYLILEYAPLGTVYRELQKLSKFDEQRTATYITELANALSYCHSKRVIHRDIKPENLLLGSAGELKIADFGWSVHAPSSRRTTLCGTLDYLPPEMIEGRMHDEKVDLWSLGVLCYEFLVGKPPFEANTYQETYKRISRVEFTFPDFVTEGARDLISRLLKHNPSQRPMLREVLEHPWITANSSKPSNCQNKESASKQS
# Protocol: as §1
# Axl(h) = biological target: T2, Axl(h) (Homo sapiens, UniProt P30530); type: biochemical; details: for efficiency in targeting Axl(h): 100 μM ATP, lower number = more robust inhibition
# T2 sequence (P30530 26-894): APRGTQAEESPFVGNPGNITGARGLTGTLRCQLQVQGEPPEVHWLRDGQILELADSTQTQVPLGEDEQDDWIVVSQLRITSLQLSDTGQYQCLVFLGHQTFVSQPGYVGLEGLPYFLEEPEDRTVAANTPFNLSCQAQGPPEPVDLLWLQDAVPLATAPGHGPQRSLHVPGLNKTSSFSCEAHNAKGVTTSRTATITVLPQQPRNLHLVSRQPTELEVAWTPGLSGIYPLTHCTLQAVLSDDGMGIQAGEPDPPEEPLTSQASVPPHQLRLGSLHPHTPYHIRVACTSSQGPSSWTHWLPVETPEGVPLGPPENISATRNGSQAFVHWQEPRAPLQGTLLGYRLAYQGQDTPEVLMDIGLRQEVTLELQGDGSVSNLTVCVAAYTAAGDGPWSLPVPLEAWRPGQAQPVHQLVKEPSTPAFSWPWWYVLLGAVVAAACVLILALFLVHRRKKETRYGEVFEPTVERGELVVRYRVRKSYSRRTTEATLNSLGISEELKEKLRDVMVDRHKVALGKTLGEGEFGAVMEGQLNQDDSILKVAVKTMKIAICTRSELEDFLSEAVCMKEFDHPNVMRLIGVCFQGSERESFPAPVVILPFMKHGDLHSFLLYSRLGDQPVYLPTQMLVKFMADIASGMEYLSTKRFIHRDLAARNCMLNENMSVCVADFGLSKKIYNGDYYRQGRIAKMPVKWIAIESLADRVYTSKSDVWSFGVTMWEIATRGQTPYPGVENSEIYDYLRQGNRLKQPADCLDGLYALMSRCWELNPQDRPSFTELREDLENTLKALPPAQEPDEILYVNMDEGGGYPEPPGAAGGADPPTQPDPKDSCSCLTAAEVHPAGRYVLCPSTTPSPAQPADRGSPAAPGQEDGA
# Protocol: as §1
# IR(h) = IR(h) (Homo sapiens, UniProt P06213); type: biochemical; details: 100 μM ATP, lower number = more robust inhibition
# Sequence of IR(h) (P06213 28-1382): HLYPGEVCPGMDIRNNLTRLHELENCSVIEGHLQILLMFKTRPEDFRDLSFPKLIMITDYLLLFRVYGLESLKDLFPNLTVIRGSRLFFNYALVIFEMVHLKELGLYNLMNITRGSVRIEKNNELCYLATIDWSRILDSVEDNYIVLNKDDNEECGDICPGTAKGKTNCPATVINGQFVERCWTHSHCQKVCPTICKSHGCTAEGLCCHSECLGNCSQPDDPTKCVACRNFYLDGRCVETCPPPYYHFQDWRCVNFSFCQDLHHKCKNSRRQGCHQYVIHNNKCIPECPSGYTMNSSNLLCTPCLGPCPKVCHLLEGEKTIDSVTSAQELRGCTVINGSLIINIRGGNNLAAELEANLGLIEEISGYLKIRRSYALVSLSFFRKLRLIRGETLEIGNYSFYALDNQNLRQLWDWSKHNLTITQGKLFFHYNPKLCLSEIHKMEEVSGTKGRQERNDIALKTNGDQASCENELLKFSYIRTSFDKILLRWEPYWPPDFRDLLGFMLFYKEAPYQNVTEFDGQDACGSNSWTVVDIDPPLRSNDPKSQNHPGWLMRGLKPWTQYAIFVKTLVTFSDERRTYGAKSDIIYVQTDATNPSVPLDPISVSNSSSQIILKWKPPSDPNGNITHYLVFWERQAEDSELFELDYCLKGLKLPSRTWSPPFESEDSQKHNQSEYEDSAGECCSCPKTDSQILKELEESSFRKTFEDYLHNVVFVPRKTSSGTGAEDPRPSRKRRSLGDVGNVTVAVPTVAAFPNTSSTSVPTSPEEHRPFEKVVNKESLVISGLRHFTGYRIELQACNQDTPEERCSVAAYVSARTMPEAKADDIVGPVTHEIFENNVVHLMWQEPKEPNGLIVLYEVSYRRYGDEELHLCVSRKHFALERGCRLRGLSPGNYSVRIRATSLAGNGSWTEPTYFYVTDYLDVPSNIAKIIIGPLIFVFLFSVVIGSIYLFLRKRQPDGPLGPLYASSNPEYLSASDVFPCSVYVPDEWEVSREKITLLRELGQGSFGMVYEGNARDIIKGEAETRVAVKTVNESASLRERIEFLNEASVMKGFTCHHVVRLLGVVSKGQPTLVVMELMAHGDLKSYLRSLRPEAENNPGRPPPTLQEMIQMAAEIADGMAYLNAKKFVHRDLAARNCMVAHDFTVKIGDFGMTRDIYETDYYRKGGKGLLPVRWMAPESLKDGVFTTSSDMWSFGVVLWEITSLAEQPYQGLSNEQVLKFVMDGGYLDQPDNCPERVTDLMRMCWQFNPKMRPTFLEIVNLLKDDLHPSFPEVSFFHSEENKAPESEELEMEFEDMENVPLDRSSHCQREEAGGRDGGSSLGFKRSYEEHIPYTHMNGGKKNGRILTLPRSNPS
# Protocol: as §1
# JAK2(h) = JAK2(h) (Homo sapiens, UniProt O60674); type: biochemical; details: 100 μM ATP, lower number = more robust inhibition
# Protocol: as §1
# SAPK3(h) = SAPK3(h) (Homo sapiens, UniProt P53778); type: biochemical; details: 100 μM ATP, lower number = more robust inhibition
# Sequence of SAPK3(h) (P53778 whole entry): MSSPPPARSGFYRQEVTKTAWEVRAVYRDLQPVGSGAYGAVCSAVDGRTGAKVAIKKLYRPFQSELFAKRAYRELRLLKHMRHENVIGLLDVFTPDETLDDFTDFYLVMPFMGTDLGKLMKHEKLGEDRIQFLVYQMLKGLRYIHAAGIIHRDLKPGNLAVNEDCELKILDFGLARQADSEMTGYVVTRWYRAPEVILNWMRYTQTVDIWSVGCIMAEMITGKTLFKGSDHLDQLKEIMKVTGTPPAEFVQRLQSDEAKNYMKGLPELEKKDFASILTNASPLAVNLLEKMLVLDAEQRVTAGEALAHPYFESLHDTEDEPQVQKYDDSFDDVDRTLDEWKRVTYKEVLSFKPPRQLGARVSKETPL
# Protocol: as §1
# CaMKIIIβ(h) = type: biochemical, human; details: 100 μM ATP, lower number = more robust inhibition
# Protocol: as §1
smiles,measurement,setting,value
"Nc1nc(Nc2ccc3c(c2)CC[C@@H](N2CCCC2)CC3)nn1-c1cc2c(nn1)-c1ccccc1CCC2 [R428, 1H-1,2,4-Triazole-3,5-diamine, 1-(6,7-dihydro-5H-benzo[6,7]cyclohepta[1,2-c]pyridazin-3-yl) N3-[(7S)-6,7,8,9-tetrahydro-7-(1-pyrrolidinyl)-5H-benzocyclohepten-2-yl]-]",efficiency in targeting ROCK-1(h),ROCK-1(h); R428 @ 1 μM,93
same,efficiency in targeting ROCK-1(h),ROCK-1(h); R428 @ 10 μM,41
same,efficiency in targeting IGF-1R(h),IGF-1R(h); R428 @ 1 μM,93
same,efficiency in targeting IGF-1R(h),IGF-1R(h); R428 @ 10 μM,58
same,efficiency in targeting NEK2(h),NEK2(h); R428 @ 1 μM,60
same,efficiency in targeting NEK2(h),NEK2(h); R428 @ 10 μM,10
same,efficiency in targeting TGEBR1(h),TGEBR1(h); R428 @ 1 μM,97
same,efficiency in targeting TGEBR1(h),TGEBR1(h); R428 @ 10 μM,69
same,efficiency in targeting Ret(h),Ret(h); R428 @ 1 μM,1
same,efficiency in targeting Ret(h),Ret(h); R428 @ 10 μM,1
same,inhibition of Ret (in words),Ret(h); at 1 and 10 μM,potently inhibits
same,efficiency in targeting IKKβ(h),IKKβ(h); R428 @ 1 μM,86
same,efficiency in targeting IKKβ(h),IKKβ(h); R428 @ 10 μM,53
same,efficiency in targeting FGFR1(h),FGFR1(h); R428 @ 1 μM,17
same,efficiency in targeting FGFR1(h),FGFR1(h); R428 @ 10 μM,1
same,inhibition of FGFr1 (in words),FGFR1(h); at 1 and 10 μM,potently inhibits
same,efficiency in targeting JAK3(h),JAK3(h); R428 @ 1 μM,69
same,efficiency in targeting JAK3(h),JAK3(h); R428 @ 10 μM,18
same,efficiency in targeting Aurora-A(h),Aurora-A(h); R428 @ 1 μM,20
same,efficiency in targeting Aurora-A(h),Aurora-A(h); R428 @ 10 μM,3
same,inhibition of AuroraA (in words),Aurora-A(h); at 1 and 10 μM,potently inhibits
same,efficiency in targeting Axl(h),Axl(h); R428 @ 1 μM,−1
same,efficiency in targeting Axl(h),Axl(h); R428 @ 10 μM,−1
same,inhibition of AXL (in words),Axl(h); kinase profiling results,inhibits AXL as expected
same,efficiency in targeting IR(h),IR(h); R428 @ 1 μM,83
same,efficiency in targeting IR(h),IR(h); R428 @ 10 μM,24
same,efficiency in targeting JAK2(h),JAK2(h); R428 @ 1 μM,96
same,efficiency in targeting JAK2(h),JAK2(h); R428 @ 10 μM,41
same,efficiency in targeting SAPK3(h),SAPK3(h); R428 @ 1 μM,106
same,efficiency in targeting SAPK3(h),SAPK3(h); R428 @ 10 μM,108
same,efficiency in targeting CaMKIIIβ(h),CaMKIIIβ(h); R428 @ 1 μM,76
same,efficiency in targeting CaMKIIIβ(h),CaMKIIIβ(h); R428 @ 10 μM,5
